≈ marks a conversion by molar mass, not a printed value.
Columns and labels:
Type in all cases: cell-based
[1] = system: C. guilliermondii T-47; assay: MIC80 broth double-dilution assay; conditions: YPAD medium, 30° C., 24 h
Protocol: (§1) The antifungal activities of the 24 azole-COX inhibitor hybrids were evaluated against a panel of 16 representative strains of different species of the genus Candida. Candida species cause both superficial and systemic infections. The panel included strains of C. albicans, C. glabrata, C. parapsilosis, C. tropicalis, C. guilliermondii, C. dubliniensis, and C. auris (Table S2). To evaluate antifungal activity, the minimal inhibitory concentration 80% (MIC80) values were determined, which were defined as the lowest drug concentrations with turbidity (measured at OD600) less than or equal to that of specific 1:5 dilutions of the growth control. As controls, FLC and VOR, were tested.
(§2) C. albicans, C. glabrata, C. parapsilosis, C. guilliermondii, C. tropicalis, and C. dubliniensis MICs were determined using CLSI M27-A3 guidelines with minor modifications. Starter cultures were streaked from glycerol stock onto YPAD agar plates and grown for 24 h at 30° C. Colonies were suspended in 1 mL PBS and diluted to 1×10^−3 OD600 and then diluted 1:100 into fresh medium. Hybrids dissolved in DMSO were added to YPAD broth (32 μL stock solution in 1218 μL of YPAD broth), and serial double dilutions of hybrids in YPAD were prepared in flat-bottomed 96-well microplates (Corning) to enable testing of concentrations ranging from 64 μg/mL to 0.003 μg/mL. Control wells with yeast cells but no drug and blank wells containing only YPAD were prepared. An equal volume (100 μL) of yeast suspensions in YPAD broth was added to each well with the exceptions of the blank wells. MIC values (Tables S4-S6) were determined after 24 h at 30° C. by measuring the OD600 using a plate reader (Infinite M200 PRO, Tecan). MIC values were defined as the point at which the OD600 was reduced by >80% compared to the no-drug wells. Each concentration was tested in triplicate, and results were confirmed by two independent sets of experiments. FLC and VOR were used as control drugs.

[2] = system: panel of 16 representative strains of different species of the genus Candida; assay: Antifungal activity (MIC80) against a panel of Candida strains, comparison; conditions: azole-susceptible strains
Protocol: as §1
(§3) MIC80 values were determined using the broth microdilution method over a concentration range of 0.003-64 μg/mL. Orange circles represent C. albicans strains, yellow circles represent C. glabrata strains, and green circles represent C. parapsilosis, C. tropicalis, C. dubliniensis and C. auris. Cells were grown in YPAD medium at 30° C. (For C. auris strains 37° C.) 24 h. Each concentration was tested in triplicate, and results were confirmed in at least two independent experiments.
as §2

[3] = system: C. albicans SC5314; assay: MIC80 broth double-dilution assay; conditions: YPAD medium, 30° C., 24 h
Protocol: as §1, §3, §2

[4] = system: C. tropicalis 660; assay: MIC80 broth double-dilution assay; conditions: YPAD medium, 30° C., 24 h
Protocol: as §1, §3, §2

[5] = system: C. dubliniensis T-99; assay: MIC80 broth double-dilution assay; conditions: YPAD medium, 30° C., 24 h
Protocol: as §1, §3, §2

[6] = system: C. albicans P-87; assay: MIC80 broth double-dilution assay; conditions: YPAD medium, 30° C., 24 h
Protocol: as §1, §3, §2

[7] = system: C. albicans ATCC 24433; assay: MIC80 broth double-dilution assay; conditions: YPAD medium, 30° C., 24 h
Protocol: as §1, §3, §2

[8] = system: C. parapsilosis ATCC 22019; assay: MIC80 broth double-dilution assay; conditions: YPAD medium, 30° C., 24 h
Protocol: as §1, §3, §2

[9] = system: C. albicans ATCC 90028; assay: MIC80 broth double-dilution assay; conditions: YPAD medium, 30° C., 24 h
Protocol: as §1, §3, §2

[10] = system: C. auris ATCC MYA5001; assay: MIC broth double-dilution assay with MTT (CLSI M27-A3); conditions: YPAD medium, 37° C., 24 h, growth score 0 or 1
Protocol: (§4) Minimal inhibitory concentration broth double-dilution assay: C. auris minimal inhibitory concentrations (MICs) were determined using CLSI M27-A3 guidelines with minor modifications. Starter cultures were streaked from glycerol stock onto YPAD agar plates and grown for 24 h at 37° C. Colonies were suspended in 1 mL PBS and diluted to 1×10^−3 optical density at 600 nm (OD600) and then diluted 1:100 into fresh medium. hybrids dissolved in DMSO were added to YPAD broth (32 μL stock solution in 1218 μL of YPAD broth), and serial double dilutions of hybrids in YPAD were prepared in flat-bottomed 96-well microplates (Corning) to enable testing of concentrations ranging from 64 μg/mL to 0.007 μg/mL. Control wells with yeast cells but no drug and blank wells containing only YPAD were prepared. An equal volume (100 μL) of yeast suspension in YPAD broth was added to each well with the exceptions of the blank wells. After incubation for 24 h at 37° C., MTT (50 μL of a 1 mg/mL solution in ddH2O) was added to each well followed by additional incubation at 37° C. for 2 h. MIC values (Table S3) were defined as the lowest concentration of an antifungal agent that caused a specified reduction in visible growth as per the CLSI M27-A3 protocol. The magnitude of reduction in visible growth was assessed using the following numerical scale: 0, optically clear; 1, slightly hazy; 2, prominent decrease (˜50%) in visible growth; 3, slight reduction in visible growth; and 4, no reduction in visible growth. The MIC was defined based on reduction in growth to 0 or 1. Results were confirmed in two independent experiments, and each concentration was tested in triplicate. FLC and VOR were used as control drugs.

[11] = system: C. auris ATCC MYA5002; assay: as above; conditions: YPAD medium, 37° C., 24 h, growth score 0 or 1
Protocol: as §4

[12] = system: C. albicans 742 (erg11ΔΔ/erg3ΔΔ mutant C. albicans strain); assay: MIC80 broth double-dilution assay, strain lacking CYP51; conditions: YPAD medium, 30° C., 24 h; erg11ΔΔ/erg3ΔΔ mutant lacking CYP51
Protocol: as §1
(§5) The clinically used FLC and VOR act primarily by preventing ergosterol biosynthesis via inhibition of CYP51. Analysis was done to determine whether fungal growth inhibition by the hybrids required the presence of the ERG11 gene that encodes for CYP51. The antifungal activities of hybrids 1 and 5 and of FLC and VOR were determined against an erg11ΔΔ/erg3ΔΔ mutant C. albicans strain and against C. albicans SN152 from which this double knockout strain was derived (Table S2). […] Yeast growth was followed at OD600 over 48 h in 96-well plates containing serial double dilutions of the tested hybrids.
as §2

[13] = system: C. albicans SN152; assay: MIC80 broth double-dilution assay; conditions: YPAD medium, 30° C., 24 h; parent strain of the erg11ΔΔ/erg3ΔΔ mutant
Protocol: as §1, §3, §5, §2

| SMILES | MIC80 against C. guilliermondii T-47 [1] | Antifungal potency (MIC80) in comparison with FLC, VOR or the corresponding stereoisomer [2] | MIC80 against C. albicans SC5314 [3] | MIC80 against C. tropicalis 660 [4] | MIC80 against C. dubliniensis T-99 [5] | MIC80 against C. albicans P-87 [6] | MIC80 against C. albicans 24433 [7] | MIC80 against C. parapsilosis 22019 [8] | MIC80 against C. albicans 90028 [9] | MIC against C. auris 5001 [10] | MIC against C. auris 5002 [11] | MIC80 against C. albicans 742 [12] | MIC80 against C. albicans SN152 [13] |
| --- | --- | --- | --- | --- | --- | --- | --- | --- | --- | --- | --- | --- | --- |
| CC(C)Cc1ccc([C@@H](C)C(=O)NC[C@](O)(Cn2cncn2)c2ccc(F)cc2F)cc1 [Hybrid 2] | 0.06 µg/mL (≈ 0.136 µM) | lowest MIC80 values against all of the azole-susceptible strains | 0.007 µg/mL (≈ 0.0158 µM) | 0.5 µg/mL (≈ 1.13 µM) | 0.12 µg/mL (≈ 0.271 µM) | 0.007 µg/mL (≈ 0.0158 µM) | 0.015 µg/mL (≈ 0.0339 µM) | 0.015 µg/mL (≈ 0.0339 µM) | 0.007 µg/mL (≈ 0.0158 µM) | 0.06 µg/mL (≈ 0.136 µM) | 1 µg/mL (≈ 2.26 µM) | 64 µg/mL (≈ 145 µM) | 0.007 µg/mL (≈ 0.0158 µM) |
| CC(C)Cc1ccc([C@@H](C)C(=O)NC[C@@](O)(Cn2cncn2)c2ccc(F)cc2F)cc1 [Hybrid 3] | 1 µg/mL (≈ 2.26 µM) | more potent than the corresponding S-configured ibuprofen hybrid 4 | 0.03 µg/mL (≈ 0.0678 µM) | 1 µg/mL (≈ 2.26 µM) | 1 µg/mL (≈ 2.26 µM) | 0.03 µg/mL (≈ 0.0678 µM) | 0.12 µg/mL (≈ 0.271 µM) | 0.5 µg/mL (≈ 1.13 µM) | 0.06 µg/mL (≈ 0.136 µM) | – | – | 64 µg/mL (≈ 145 µM) | 0.06 µg/mL (≈ 0.136 µM) |
